According to US20250313563A1, “GLYCOGEN SYNTHASE KINASE 3 INHIBITORS AND USES THEREOF” (The Broad Institute, Inc., priority 2022, published 2025):
Read-outs that look alike come from different tables or passages of the source.

Columns and labels:
[1] = target: GSK3b (GST-full length GSK3b) (Homo sapiens (Human), UniProt P49841); experiment: GSK3b TR-FRET kinase assay; format: biochemical
How it was run: (§1)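 Compound was preincubated 30 min with 1 nM GST-GSK3 enzyme. Reaction ran 100 min at ambient temperature in Tris pH 7.5/MgCl2 with 200 nM biotinylated pS645-glycogen synthase 631-650 peptide and ATP (4 μM GSK3α, 2 μM GSK3b, or 1 mM). The EDTA-stopped reaction was read by TR-FRET (Tb-anti-pSer641/streptavidin-d2), and IC50s were fitted.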

[2] = target: GSK3α (GST-full length GSK3α) (Homo sapiens (Human), UniProt P49840); experiment: GSK3α TR-FRET kinase assay; format: biochemical
Chain of GSK3α (GST-full length GSK3α) (P49840 whole entry): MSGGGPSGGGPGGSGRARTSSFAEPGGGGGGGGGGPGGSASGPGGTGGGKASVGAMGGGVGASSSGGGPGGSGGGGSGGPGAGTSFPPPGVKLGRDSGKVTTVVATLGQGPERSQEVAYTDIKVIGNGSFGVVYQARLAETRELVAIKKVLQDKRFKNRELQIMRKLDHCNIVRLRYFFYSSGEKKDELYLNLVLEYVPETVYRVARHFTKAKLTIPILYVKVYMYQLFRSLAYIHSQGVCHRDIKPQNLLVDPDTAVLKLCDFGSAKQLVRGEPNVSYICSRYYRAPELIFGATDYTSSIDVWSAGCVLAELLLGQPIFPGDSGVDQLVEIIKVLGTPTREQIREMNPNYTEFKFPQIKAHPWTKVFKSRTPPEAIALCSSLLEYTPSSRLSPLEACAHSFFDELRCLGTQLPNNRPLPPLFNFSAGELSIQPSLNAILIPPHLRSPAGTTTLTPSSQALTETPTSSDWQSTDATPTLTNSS
How it was run: as §1

[3] = 1 nM GSK3b, 2 μM ATP, 30 minute preincubation, read-out: GSK3-B TR-FRET BIOCHEMICAL (TR-FRET), IC50
[4] = 1 nM GSK3α, 4 μM ATP, 30 minute preincubation, read-out: GSK3-A TR-FRET BIOCHEMICAL (TR-FRET), IC50
[5] = 1 nM GSK3b, 2 μM ATP, 30 minute preincubation, Table 16, read-out: GSK3-B TR-FRET BIOCHEMICAL (TR-FRET), IC50
[6] = 1 nM GSK3α, 4 μM ATP, 30 minute preincubation, Table 16, read-out: GSK3-A TR-FRET BIOCHEMICAL (TR-FRET), IC50
[7] = read-out: GSK3-B (TR-FRET 1 mM ATP), GMean, IC50, 1 mM ATP, geometric mean
[8] = read-out: GSK3-A (TR-FRET 1 mM ATP), GMean, IC50, 1 mM ATP, geometric mean

Chain of GSK3b (GST-full length GSK3b) (P49841 whole entry): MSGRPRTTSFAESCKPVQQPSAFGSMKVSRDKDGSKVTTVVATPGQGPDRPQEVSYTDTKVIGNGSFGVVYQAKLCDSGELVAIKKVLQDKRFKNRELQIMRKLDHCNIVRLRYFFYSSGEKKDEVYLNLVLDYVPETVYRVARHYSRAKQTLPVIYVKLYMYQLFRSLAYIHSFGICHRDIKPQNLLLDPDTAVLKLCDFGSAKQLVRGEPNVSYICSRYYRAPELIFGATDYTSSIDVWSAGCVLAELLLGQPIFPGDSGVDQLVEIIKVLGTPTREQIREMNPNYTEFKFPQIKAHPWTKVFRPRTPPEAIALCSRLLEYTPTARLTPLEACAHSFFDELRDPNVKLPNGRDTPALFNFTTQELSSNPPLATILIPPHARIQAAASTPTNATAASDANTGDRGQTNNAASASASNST

| IC50 [1, 5] [µM] | IC50 [2, 6] [µM] | IC50 [1, 7] [µM] | IC50 [2, 8] [µM] | SMILES | other results |
| --- | --- | --- | --- | --- | --- |
| 0.1 to 1 | 0.1 to 1 |  |  | CCC1(c2cccc(-c3ccncc3F)c2)C2=C(CC(C)(C)CC2=O)Nc2n[nH]c(C)c21 (stereo not drawn) [Compound 913017] |  |
| ≤ 0.1 | ≤ 0.1 | 1 to 5 | 0.1 to 1 | CCC1(c2cccc(-c3ccnc(C)c3)c2)C2=C(CC(C)(C)CC2=O)Nc2n[nH]c(C)c21 (stereo not drawn) [Compound 913018] |  |
|  |  | 0.1 to 1 | ≤ 0.1 | CCC1(c2cccc(-c3ccnn3C)c2)C2=C(CC(C)(C)CC2=O)Nc2n[nH]c(C)c21 (stereo not drawn) [Compound 913023] |  |
| ≤ 0.1 | ≤ 0.1 | 0.1 to 1 | ≤ 0.1 | CCC1(c2cccc(-c3cn[nH]c3)c2)C2=C(CC(C)(C)CC2=O)Nc2n[nH]c(C)c21 (stereo not drawn) [Compound 913025] |  |
| ≤ 0.1 | ≤ 0.1 |  |  | CCC1(c2cccc(-c3cnn(C)c3)c2)C2=C(CC(C)(C)CC2=O)Nc2n[nH]c(C)c21 (stereo not drawn) [Compound 913031] |  |
| ≤ 0.1 | ≤ 0.1 | 0.1 to 1 | ≤ 0.1 | CC[C@]1(c2cccc(-c3cn(C)nc3C)c2)C2=C(CC(C)(C)CC2=O)Nc2n[nH]c(C)c21 [Compound 913035] |  |
| ≤ 0.1 | ≤ 0.1 | 0.1 to 1 | ≤ 0.1 | CCC1(c2cccc(-c3cnn4c3CCCC4)c2)C2=C(CC(C)(C)CC2=O)Nc2n[nH]c(C)c21 (stereo not drawn) [Compound 913036] |  |
| 1 to 5 | 0.1 to 1 |  |  | CCC1(c2cccc(-c3cnn(C)c3)c2)C2=C(CC(C)(C)CC2=O)Nc2n[nH]c(C)c21 (stereo not drawn) [Compound 913038] |  |
| 1 to 5 | 0.1 to 1 |  |  | CC[C@]1(c2cccc(-c3cn(C)nc3C(C)C)c2)C2=C(CC(C)(C)CC2=O)Nc2n[nH]c(C)c21 [Compound 913040] |  |
| > 5 | > 5 |  |  | CC[C@]1(c2cccc(-c3cnn(CCOC)c3)c2)C2=C(CC(C)(C)CC2=O)Nc2n[nH]c(C)c21 [Compound 913042] |  |
|  |  | 0.1 to 1 | ≤ 0.1 | CCC1(c2cccc(-c3cnn(C)c3C)c2)C2=C(CC(C)(C)CC2=O)Nc2n[nH]c(C)c21 (stereo not drawn) [Compound 913045] |  |
| ≤ 0.1 | ≤ 0.1 | 0.1 to 1 | ≤ 0.1 | CC[C@]1(c2cccc(-c3ccncc3C)c2)C2=C(CC(C)(C)CC2=O)Nc2n[nH]cc21 [Compound 913047] |  |
| ≤ 0.1 | ≤ 0.1 | 0.1 to 1 | ≤ 0.1 | CC[C@]1(c2cccc(-c3cc(C)ncc3C)c2)C2=C(CC(C)(C)CC2=O)Nc2n[nH]c(C)c21 [Compound 913050] |  |
| > 5 | 0.1 to 1 |  |  | CCC1(c2cccc(-c3ccnc(C)c3)c2)C2=C(CC(C)(C)CC2=O)Nc2n[nH]c(C)c21 (stereo not drawn) [Compound 913051] |  |
| ≤ 0.1 | ≤ 0.1 |  |  | CCC1(c2cccc(-c3ccnc(OC)c3)c2)C2=C(CC(C)(C)CC2=O)Nc2n[nH]c(C)c21 (stereo not drawn) [Compound 913053] |  |
| 0.1 to 1 | ≤ 0.1 |  |  | CCC1(c2cccc(N(C)c3cccc(OC)n3)c2)C2=C(CC(C)(C)CC2=O)Nc2n[nH]cc21 (stereo not drawn) [Compound 913121] |  |
| 0.1 to 1 | 0.1 to 1 |  |  | CCC1(c2cccc(N(C)c3cccc(C(F)(F)F)n3)c2)C2=C(CC(C)(C)CC2=O)Nc2n[nH]cc21 (stereo not drawn) [Compound 913122] |  |
| ≤ 0.1 | ≤ 0.1 | 0.1 to 1 | ≤ 0.1 | CCC1(c2cccc(S(=O)(=O)c3ccccc3)c2)C2=C(CC(C)(C)CC2=O)Nc2n[nH]cc21 (stereo not drawn) [Compound 913123] |  |
| 0.1 to 1 | ≤ 0.1 |  |  | CCC1(c2cccc(N(C)C(=O)CN3CCCC3)c2)C2=C(CC(C)(C)CC2=O)Nc2n[nH]cc21 (stereo not drawn) [Compound 913125] |  |

The remaining lines, values behind:

| SMILES | IC50 [1, 5] [µM] | IC50 [2, 6] [µM] | IC50 [1, 7] [µM] | IC50 [2, 8] [µM] | other results |
| --- | --- | --- | --- | --- | --- |
| CC[C@@]1(c2cccc(C(F)(F)F)c2)C2=C(CC(C)(C)NC2=O)Nc2n[nH]cc21 [Compound 913004] |  |  |  |  | IC50 [1, 3]: > 5 µM; IC50 [2, 4]: > 5 µM |
| CCC1(c2cccc(C(F)(F)F)c2)C2=C(CC(C)(C)NC2=O)Nc2n[nH]cc21 (stereo not drawn) [Compound 913006, 4-ethyl-7,7-dimethyl-4-(3-(trifluoromethyl)phenyl)-2,4,6,7,8,9-hexahydro-5H-pyrazolo[3,4-b][1,6]naphthyridin-5-one] |  |  |  |  | IC50 [1, 3]: ≤ 0.1 µM; IC50 ([1]; GSK3-B (TR-FRET 1 mM ATP), GMean, IC50, 1 mM ATP, geometric mean): > 5 µM; IC50 [2, 4]: ≤ 0.1 µM; IC50 ([2]; GSK3-A (TR-FRET 1 mM ATP), GMean, IC50, 1 mM ATP, geometric mean): 0.1 to 1 µM |
| CCC1(c2cccc(-c3ccnc(C(F)(F)F)c3)c2)C2=C(CC(C)(C)CC2=O)Nc2n[nH]c(C)c21 (stereo not drawn) [Compound 913020] | ≤ 0.1 | ≤ 0.1 |  |  |  |
| CC[C@@]1(c2cccc(-c3ccnc(N(C)C)c3)c2)C2=C(CC(C)(C)CC2=O)Nc2n[nH]c(C)c21 [Compound 913021] | ≤ 0.1 | ≤ 0.1 |  |  |  |
| CCC1(c2cccc(-c3ccncc3C)c2)C2=C(CC(C)(C)CC2=O)Nc2n[nH]c(C)c21 (stereo not drawn) [Compound 913022] | 1 to 5 | 0.1 to 1 |  |  |  |
| CCC1(c2cccc(-c3c(C)nn(C)c3C)c2)C2=C(CC(C)(C)CC2=O)Nc2n[nH]c(C)c21 (stereo not drawn) [Compound 913026] | 0.1 to 1 | 0.1 to 1 |  |  |  |
| CCC1(c2cccc(-c3cnn(C4CC4)c3)c2)C2=C(CC(C)(C)CC2=O)Nc2n[nH]cc21 (stereo not drawn) [Compound 913028] | ≤ 0.1 | ≤ 0.1 |  |  |  |
| CC[C@@]1(c2cccc(-c3cn(C)nc3C(C)C)c2)C2=C(CC(C)(C)CC2=O)Nc2n[nH]c(C)c21 [Compound 913029] | ≤ 0.1 | ≤ 0.1 |  |  |  |
| CC[C@@]1(c2cccc(-c3cncn3C)c2)C2=C(CC(C)(C)CC2=O)Nc2n[nH]c(C)c21 [Compound 913032] | ≤ 0.1 | ≤ 0.1 | ≤ 0.1 | ≤ 0.1 |  |
| CCC1(c2cccc(-c3cnn4c3CCCC4)c2)C2=C(CC(C)(C)CC2=O)Nc2n[nH]c(C)c21 (stereo not drawn) [Compound 913033] | 1 to 5 | 0.1 to 1 |  |  |  |
| CCC1(c2cccc(-c3cn(C)nc3C)c2)C2=C(CC(C)(C)CC2=O)Nc2n[nH]c(C)c21 (stereo not drawn) [Compound 913034] | > 5 | 1 to 5 |  |  |  |
| CC[C@]1(c2cccc(-c3cncn3C)c2)C2=C(CC(C)(C)CC2=O)Nc2n[nH]c(C)c21 [Compound 913037] | 0.1 to 1 | ≤ 0.1 |  |  |  |
| CCC1(c2cccc(-c3ccn(C)n3)c2)C2=C(CC(C)(C)CC2=O)Nc2n[nH]c(C)c21 (stereo not drawn) [Compound 913039] | > 5 | 1 to 5 |  |  |  |
| CC[C@]1(c2cccc(-c3c(C)nn(C)c3C)c2)C2=C(CC(C)(C)CC2=O)Nc2n[nH]c(C)c21 [Compound 913043] | ≤ 0.1 | ≤ 0.1 | 0.1 to 1 | ≤ 0.1 |  |
| CCC1(c2cccc(-c3cn[nH]c3)c2)C2=C(CC(C)(C)CC2=O)Nc2n[nH]c(C)c21 (stereo not drawn) [Compound 913044] | 0.1 to 1 | 0.1 to 1 |  |  |  |
| CCC1(c2cccc(-c3ccnc(C(F)(F)F)c3)c2)C2=C(CC(C)(C)CC2=O)Nc2n[nH]c(C)c21 (stereo not drawn) [Compound 913049] | > 5 | 0.1 to 1 |  |  |  |
| CCC1(c2cccc(-c3ccncc3F)c2)C2=C(CC(C)(C)CC2=O)Nc2n[nH]c(C)c21 (stereo not drawn) [Compound 913052] | ≤ 0.1 | ≤ 0.1 | 0.1 to 1 | ≤ 0.1 |  |
| CC1(C)CC(=O)C2=C(C1)Nc1n[nH]cc1C21CCC2(CCC(=O)N2)CC1 (stereo not drawn) [Compound 913056] |  |  |  |  | IC50 [1, 3]: 1 to 5 µM; IC50 [2, 4]: 0.1 to 1 µM |
| CC(=O)N1CC2(C1)CC1(CO2)C2=C(CC(C)(C)CC2=O)Nc2n[nH]cc21 (stereo not drawn) [Compound 913058] |  |  | 0.1 to 1 | ≤ 0.1 | IC50 [1, 3]: ≤ 0.1 µM; IC50 [2, 4]: ≤ 0.1 µM |
| CCC1(c2cc(N(C)C(C)=O)ccc2F)C2=C(CC(C)(C)CC2=O)Nc2n[nH]cc21 (stereo not drawn) [Compound 913124] | 0.1 to 1 | 0.1 to 1 |  |  |  |
